Measured values from PubChem BioAssay (NCI).
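How tested: cells in 96-well plates exposed to compound for 48 hours at five concentrations. At the TGI there is no net growth.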

Legend:
Assay in all cases: inhibition of tumour cell growth, NCI panel, 48 h
[1] = tested on: 786-0 renal
[2] = tested on: A498 renal
[3] = tested on: A549 NSCLC
[4] = tested on: ACHN renal
[5] = tested on: CAKI-1 renal
[6] = tested on: CCRF-CEM leukemia
[7] = tested on: DLD-1 colon
[8] = tested on: DMS 114 small cell lung
[9] = tested on: DMS 273 small cell lung
[10] = tested on: EKVX NSCLC
[11] = tested on: HCC-2998 colon
[12] = tested on: HCT-116 colon
[13] = tested on: HCT-15 colon
[14] = tested on: HL-60(TB) leukemia
[15] = tested on: HOP-92 NSCLC
[16] = tested on: HT29 colon
[17] = tested on: IGROV1 ovarian
[18] = tested on: K-562 leukemia
[19] = tested on: KM20L2 colon
[20] = tested on: LOX IMVI melanoma
[21] = tested on: LXFL 529 NSCLC
[22] = tested on: M14 melanoma
[23] = tested on: M19-MEL melanoma
[24] = tested on: MALME-3M melanoma
[25] = tested on: MOLT-4 leukemia
[26] = tested on: NCI-H226 lung
[27] = tested on: NCI-H23 lung
[28] = tested on: NCI-H460 lung
[29] = tested on: NCI-H522 lung
[30] = tested on: OVCAR-3 ovarian
[31] = tested on: OVCAR-4 ovarian
[32] = tested on: OVCAR-5 ovarian
[33] = tested on: OVCAR-8 ovarian
[34] = tested on: RPMI-8226 leukemia
[35] = tested on: RXF 393 renal
[36] = tested on: SF-268 CNS
[37] = tested on: SF-295 CNS
[38] = tested on: SF-539 CNS
[39] = tested on: SK-MEL-2 melanoma
[40] = tested on: SK-MEL-28 melanoma
[41] = tested on: SK-MEL-5 melanoma
[42] = tested on: SN12C renal
[43] = tested on: SNB-19 CNS
[44] = tested on: SNB-75 CNS
[45] = tested on: SNB-78 CNS
[46] = tested on: SR leukemia
[47] = tested on: SW-620 colon
[48] = tested on: TK-10 renal
[49] = tested on: U251 CNS
[50] = tested on: UACC-257 melanoma
[51] = tested on: UACC-62 melanoma
[52] = tested on: UO-31 renal
[53] = tested on: XF 498 CNS
[54] = tested on: COLO 205 colon
[55] = tested on: HOP-62 NSCLC
[56] = tested on: KM12 colon
[57] = tested on: SK-OV-3 ovarian

## CCOc1ccc(N=C2NC(=O)C(CC(=O)Nc3ccccc3[N+](=O)[O-])S2)cc1 (stereo not given)
[1]
  TGI: > 100 µM
[2]
  TGI: > 100 µM
[3]
  TGI: > 100 µM
[4]
  TGI: > 100 µM
[5]
  TGI: > 100 µM
[6]
  TGI: > 100 µM
[7]
  TGI: > 100 µM
[8]
  TGI: > 100 µM
[9]
  TGI: > 100 µM
[10]
  TGI: > 100 µM
[11]
  TGI: > 100 µM
[12]
  TGI: > 100 µM
[13]
  TGI: > 100 µM
[14]
  TGI: > 100 µM
[15]
  TGI: > 100 µM
[16]
  TGI: > 100 µM
[17]
  TGI: > 100 µM
[18]
  TGI: > 100 µM
[19]
  TGI: > 100 µM
[20]
  TGI: > 100 µM
[21]
  TGI: > 100 µM
[22]
  TGI: > 100 µM
[23]
  TGI: > 100 µM
[24]
  TGI: > 100 µM
[25]
  TGI: > 100 µM
[26]
  TGI: > 100 µM
[27]
  TGI: > 100 µM
[28]
  TGI: > 100 µM
[29]
  TGI: > 100 µM
[30]
  TGI: > 100 µM
[31]
  TGI: > 100 µM
[32]
  TGI: > 100 µM
[33]
  TGI: > 100 µM
[34]
  TGI: > 100 µM
[35]
  TGI: > 100 µM
[36]
  TGI: > 100 µM
[37]
  TGI: > 100 µM
[38]
  TGI: > 100 µM
[39]
  TGI: > 100 µM
[40]
  TGI: > 100 µM
[41]
  TGI: > 100 µM
[42]
  TGI: > 100 µM
[43]
  TGI: > 100 µM
[44]
  TGI: > 100 µM
[45]
  TGI: > 100 µM
[46]
  TGI: > 100 µM
[47]
  TGI: > 100 µM
[48]
  TGI: > 100 µM
[49]
  TGI: > 100 µM
[50]
  TGI: > 100 µM
[51]
  TGI: > 100 µM
[52]
  TGI: > 100 µM
[53]
  TGI: > 100 µM

## CC1(C)OC(=S)N(c2ccccc2)C12C=Cc1cc3ccccc3nc1S2 (stereo not given)
[1]
  TGI: > 100 µM
[3]
  TGI: > 100 µM
[4]
  TGI: > 100 µM
[6]
  TGI: > 100 µM
[54]
  TGI: > 100 µM
[7]
  TGI: 97 µM
[8]
  TGI: > 100 µM
[9]
  TGI: > 100 µM
[10]
  TGI: > 100 µM
[11]
  TGI: > 100 µM
[12]
  TGI: > 100 µM
[13]
  TGI: > 100 µM
[14]
  TGI: > 100 µM
[55]
  TGI: > 100 µM
[15]
  TGI: > 100 µM
[16]
  TGI: > 100 µM
[17]
  TGI: > 100 µM
[18]
  TGI: > 100 µM
[56]
  TGI: > 100 µM
[19]
  TGI: > 100 µM
[20]
  TGI: > 100 µM
[21]
  TGI: > 100 µM
[22]
  TGI: > 100 µM
[23]
  TGI: > 100 µM
[24]
  TGI: > 100 µM
[25]
  TGI: > 100 µM
[26]
  TGI: > 100 µM
[27]
  TGI: > 100 µM
[28]
  TGI: > 100 µM
[29]
  TGI: > 100 µM
[30]
  TGI: > 100 µM
[32]
  TGI: > 100 µM
[33]
  TGI: > 100 µM
[34]
  TGI: > 100 µM
[35]
  TGI: > 100 µM
[36]
  TGI: > 100 µM
[38]
  TGI: > 100 µM
[39]
  TGI: > 100 µM
[40]
  TGI: > 100 µM
[41]
  TGI: > 100 µM
[57]
  TGI: > 100 µM
[42]
  TGI: > 100 µM
[43]
  TGI: > 100 µM
[44]
  TGI: > 100 µM
[46]
  TGI: 80.1 µM
[47]
  TGI: > 100 µM
[48]
  TGI: > 100 µM
[49]
  TGI: > 100 µM
[50]
  TGI: > 100 µM
[51]
  TGI: > 100 µM
[52]
  TGI: > 100 µM
[53]
  TGI: > 100 µM
